Source: PubChem BioAssay AID1259407 (Chemical Carcinogenesis Research Information System (CCRIS), 2018)
Calls of active or inactive are those of the source. How the calls were made is not given here.

Tested on: CCRIS mutagenicity, Ames/micronucleus/aberration tests
Test: CCRIS mutagenicity studies
[1] = Test System: AMES SALMONELLA TYPHIMURIUM, Strain/Indicator: TA98, Metabolic Activation: NONE, Method: STANDARD PLATE
[2] = Test System: AMES SALMONELLA TYPHIMURIUM, Strain/Indicator: TA100, Metabolic Activation: NONE, Method: STANDARD PLATE

Nc1nc(-c2ccc([N+](=O)[O-])cc2)nc2c1ncn2[C@@H]1O[C@H](CO)[C@@H](O)[C@H]1O
mutagenic call (Test System: AMES SALMONELLA TYPHIMURIUM, Strain/Indicator: TA98(1,8-DNP), Metabolic Activation: NONE, Method: PREINCUBATION): active; positive | mutagenic call (Test System: AMES SALMONELLA TYPHIMURIUM, Strain/Indicator: TA98(NR), Metabolic Activation: NONE, Method: PREINCUBATION): active; positive | mutagenic call (Test System: AMES SALMONELLA TYPHIMURIUM, Strain/Indicator: TA98(NR), Metabolic Activation: RAT, LIVER, S-9, PCB, Method: PREINCUBATION): inactive; negative | mutagenic call (Test System: AMES SALMONELLA TYPHIMURIUM, Strain/Indicator: TA98, Metabolic Activation: NONE, Method: PREINCUBATION): active; positive | mutagenic call (Test System: AMES SALMONELLA TYPHIMURIUM, Strain/Indicator: TA98, Metabolic Activation: RAT, LIVER, S-9, PCB, Method: PREINCUBATION): active; positive | mutagenic call (Test System: AMES SALMONELLA TYPHIMURIUM, Strain/Indicator: TA100(1,8-DNP), Metabolic Activation: RAT, LIVER, S-9, PCB, Method: PREINCUBATION): inactive; negative | mutagenic call (Test System: AMES SALMONELLA TYPHIMURIUM, Strain/Indicator: TA100(NR), Metabolic Activation: RAT, LIVER, S-9, PCB, Method: PREINCUBATION): inactive; negative | mutagenic call (Test System: AMES SALMONELLA TYPHIMURIUM, Strain/Indicator: TA100, Metabolic Activation: NONE, Method: PREINCUBATION): active; positive | mutagenic call (Test System: AMES SALMONELLA TYPHIMURIUM, Strain/Indicator: TA100, Metabolic Activation: RAT, LIVER, S-9, PCB, Method: PREINCUBATION): active; positive | mutagenic call (Test System: AMES SALMONELLA TYPHIMURIUM, Strain/Indicator: YG1020, Metabolic Activation: NONE, Method: PREINCUBATION): active; positive | mutagenic call (Test System: AMES SALMONELLA TYPHIMURIUM, Strain/Indicator: YG1020, Metabolic Activation: RAT, LIVER, S-9, PCB, Method: PREINCUBATION): active; positive | mutagenic call (Test System: AMES SALMONELLA TYPHIMURIUM, Strain/Indicator: YG1021, Metabolic Activation: NONE, Method: PREINCUBATION): active; positive | mutagenic call (Test System: AMES SALMONELLA TYPHIMURIUM, Strain/Indicator: YG1021, Metabolic Activation: RAT, LIVER, S-9, PCB, Method: PREINCUBATION): active; positive | mutagenic call (Test System: AMES SALMONELLA TYPHIMURIUM, Strain/Indicator: YG1024, Metabolic Activation: NONE, Method: PREINCUBATION): active; positive | mutagenic call (Test System: AMES SALMONELLA TYPHIMURIUM, Strain/Indicator: YG1024, Metabolic Activation: RAT, LIVER, S-9, PCB, Method: PREINCUBATION): active; positive | mutagenic call (Test System: AMES SALMONELLA TYPHIMURIUM, Strain/Indicator: YG1025, Metabolic Activation: NONE, Method: PREINCUBATION): active; positive | mutagenic call (Test System: AMES SALMONELLA TYPHIMURIUM, Strain/Indicator: YG1025, Metabolic Activation: RAT, LIVER, S-9, PCB, Method: PREINCUBATION): active; positive | mutagenic call (Test System: AMES SALMONELLA TYPHIMURIUM, Strain/Indicator: YG1026, Metabolic Activation: NONE, Method: PREINCUBATION): active; positive | mutagenic call (Test System: AMES SALMONELLA TYPHIMURIUM, Strain/Indicator: YG1026, Metabolic Activation: RAT, LIVER, S-9, PCB, Method: PREINCUBATION): active; positive | mutagenic call (Test System: AMES SALMONELLA TYPHIMURIUM, Strain/Indicator: YG1029, Metabolic Activation: NONE, Method: PREINCUBATION): active; positive | mutagenic call (Test System: AMES SALMONELLA TYPHIMURIUM, Strain/Indicator: YG1029, Metabolic Activation: RAT, LIVER, S-9, PCB, Method: PREINCUBATION): active; positive

CCCCOC(=O)c1cccc2cccnc12
mutagenic call [1]: inactive; negative | mutagenic call (Test System: AMES SALMONELLA TYPHIMURIUM, Strain/Indicator: TA98, Metabolic Activation: RAT, LIVER, S-9, AROCLOR 1254, Method: STANDARD PLATE): inactive; negative | mutagenic call [2]: inactive; negative | mutagenic call (Test System: AMES SALMONELLA TYPHIMURIUM, Strain/Indicator: TA100, Metabolic Activation: RAT, LIVER, S-9, AROCLOR 1254, Method: STANDARD PLATE): inactive; negative | mutagenic call (Test System: AMES SALMONELLA TYPHIMURIUM, Strain/Indicator: TA1535, Metabolic Activation: NONE, Method: STANDARD PLATE): inactive; negative | mutagenic call (Test System: AMES SALMONELLA TYPHIMURIUM, Strain/Indicator: TA1535, Metabolic Activation: RAT, LIVER, S-9, AROCLOR 1254, Method: STANDARD PLATE): inactive; negative | mutagenic call (Test System: AMES SALMONELLA TYPHIMURIUM, Strain/Indicator: TA1537, Metabolic Activation: NONE, Method: STANDARD PLATE): inactive; negative | mutagenic call (Test System: AMES SALMONELLA TYPHIMURIUM, Strain/Indicator: TA1537, Metabolic Activation: RAT, LIVER, S-9, AROCLOR 1254, Method: STANDARD PLATE): inactive; negative

O=C1CC[C@@]2(O)[C@H]3Cc4ccc(O)c5c4[C@@]2(CCN3CC2CC2)[C@H]1O5
mutagenic call (Test System: UDS HUMAN FIBROBLASTS, Strain/Indicator: THY INCORP (NON-S-PHASE), Metabolic Activation: NONE, Method: AUTORADIOGRAPHY): active; positive

N=C(N)c1ccc2cc(C(=N)N)[nH]c2c1
mutagenic call [1]: inactive; negative | mutagenic call (Test System: AMES SALMONELLA TYPHIMURIUM, Strain/Indicator: TA98, Metabolic Activation: RAT, LIVER, S-9, PHENOBARBITAL, Method: STANDARD PLATE): inactive; negative | mutagenic call [2]: inactive; negative | mutagenic call (Test System: AMES SALMONELLA TYPHIMURIUM, Strain/Indicator: TA100, Metabolic Activation: RAT, LIVER, S-9, PHENOBARBITAL, Method: STANDARD PLATE): inactive; negative
